According to US10301288B2, “Kinase inhibitors” (Topivert Pharma Limited, priority 2013, dated 2019):
Read-outs that look alike come from different tables or passages of the source.

Legend:
[1] = Cryopreserved hepatocyte stability, dog; format: in vitro ADME; settings: pooled cryopreserved hepatocytes, read-out: Mean intrinsic clearance
Description: Formulae Clint(tissue clearance) mL/min/kg=[0.693/t½ (min)]×[1/microsomal protein concentration mg/mL]×[mg microsomes/g liver]×[g liver/kg body weight] […] The incubations were performed at 37° C. with 100 μL, samples taken from the incubation, at 0, 10, 20, 45 and 90 minutes, and reactions terminated by addition of 100 μL of acetonitrile containing carbamazepine as analytical internal standard. […] Half-life values were calculated from the relationship T1/2 (min)=−0.693/λ • where λ was the slope of the Ln concentration vs time curve. • Standard compounds testosterone, midazolam and 4-methylumbelliferone are included in the assay design.
Clint(Tissue Clearance) mL/min/kg=[0.693/t½(min)]×[1/hepatocyte concentration (million cells/mL)]×[million cells/g liver]×[g liver/kg body weight] Clint(Hepatic clearance) mL/min/kg=hepatic blood flow×Clint/(hepatic blood flow+Clint) Hepatic extraction ratio(Eh)=Clint(Hepatic clearance) mL/min/kg/hepatic blood flow (mL/min/kg)

[2] = Pharmacokinetics and colon distribution in rats; format: in vivo, male Wistar rats; settings: for concentration at 0.5 h: time cell blank (0.5 hr per method)
Description: 30 male Wistar rats were divided into two groups: Group I (p.o.: 5 mg/kg) and Group II (i.v.: 0.25 mg/kg). […] From each rat, blood samples (approximately 120 μL) were collected from retro orbital plexus such that samples were obtained at pre-dose, 0.05, 0.13, 0.25, 0.5, 1, 2, 4, 8, and 24 hr (i.v.) and pre-dose, 0.5, 1, 2, 4, 6, 8, 12 and 24 hr (p.o.). Immediately after collection, plasma was harvested from blood by centrifugation and stored at −70° C. until analysis. Following collection of blood sample, the animals (Group I) were humanely euthanized by carbon dioxide asphyxiation. The total colon was isolated, flushed with cold phosphate buffer saline (pH 7.4) to remove contents and weighed. The total colon tissues homogenized with ice-cold phosphate buffered saline, pH 7.4. Buffer volume to be used for homogenization was twice the weight of tissue. All the samples were stored below −70° C. until bioanalysis. Total colon tissue homogenate volume was three times. Plasma and total colon tissue samples were quantified by LC-MS/MS method (LLOQ in plasma and total colon tissue=0.5 ng/mL).

[3] = Chemical stability in solid form at 40° C. and 75% relative humidity; format: physicochemical
Description: The results of the study are reported in the table below (where chemical purity was assessed using HPLC).

[4] = tested on: β-catenin; assay: (m) Accumulation of β catenin in d-U937 cells; format: cell-based, human; settings: Reference Compound at 1 μg/mL defined as 100%
Summary of the method: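 Read-out: colourimetric cell-based immunoassay for endogenous β-catenin (OD450 minus 655 reference), normalised to crystal violet absorbance at 595 nm. Test compound or vehicle was applied for 18 hr to U937 monocytes first differentiated with PMA (100 ng/mL) for 48–72 hr.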

[5] = male, Wistar, colon, po, rat, 5 mg/kg p.o., read-out: Mean concentration, Colon
[6] = male, Wistar, plasma, po, rat, 5 mg/kg p.o., read-out: Mean concentration, Plasma
[7] = male, Wistar, plasma, Rat, 0.25 mg/kg intravenous
[8] = male, Wistar, po, Rat, 5 mg/kg p.o., Plasma
[9] = male, Wistar, po, Rat, 5 mg/kg p.o., Total colon

hepatocyte CLint at 0.1 μM [1]: 46 µL/min/1e6 cells
Fpo ([2]; Rat, 5 mg/kg p.o., Plasma): 0.04%
concentration at 1 h [2, 5]: 1.9 ng/g
concentration at 2 h [2, 5]: 4 ng/g
concentration at 4 h [2, 5]: 339 ng/g
concentration at 6 h [2, 5]: 1860 ng/g
concentration at 8 h [2, 5]: 2000 ng/g
concentration at 12 h [2, 5]: 597 ng/g
concentration at 24 h [2, 5]: 53.9 ng/g
concentration at 0.5 h [2, 5]: 3.3 ng/g
concentration at 1 h [2, 6]: 0.9 ng/mL
concentration at 2 h [2, 6]: 0.6 ng/mL
concentration at 4 h [2, 6]: 2.7 ng/mL
concentration at 6 h [2, 6]: 1.7 ng/mL
concentration at 8 h [2, 6]: 0.6 ng/mL
concentration at 12 h [2, 6]: 0.7 ng/mL
concentration at 24 h [2, 6]: 1.8 ng/mL
concentration at 0.5 h [2, 6]: 0.8 ng/mL
AUC(0-inf) [2, 7]: 691 ng·h/mL
AUC(0-t) [2, 7]: 682 ng·h/mL
C0 [2, 7]: 5360 ng/mL
Vd [2, 7]: 0.3 L/kg
clearance [2, 7]: 6.3 mL/min/kg
half-life [2, 7]: 2.2 h
AUC(0-t) [2, 8]: 4.8 ng·h/mL
Cmax [2, 8]: 2.7 ng/mL
Tmax [2, 8]: 4 h
AUC(0-inf) [2, 9]: 15800 ng·h/mL
AUC(0-t) [2, 9]: 15500 ng·h/mL
Cmax [2, 9]: 2000 ng/mL
Tmax [2, 9]: 8 h
Mean concentration, Colon ([2]; rat, 5 mg/kg p.o., Pre-dose): 0.0 ng/g
Mean concentration, Plasma ([2]; rat, 5 mg/kg p.o., Pre-dose): 0.0 ng/mL
chemical purity (HPLC), solid form ([3]; 0 months): 98.52%
chemical purity (HPLC), solid form ([3]; 1 month, 40° C./75% RH): 96.88%
chemical purity (HPLC), solid form ([3]; 3 months, 40° C./75% RH): 94.32%
SMILES: C#Cc1cc(Nc2nccc(Oc3ccc(NC(=O)Nc4cc(C(C)(C)C)nn4-c4ccc(C)cc4)c4ccccc34)n2)cc(C(=O)NCCOCCOCCOC)c1 [Example 2, 3-((4-((4-(3-(3-(tert-Butyl)-1-(p-tolyl)-1H-pyrazol-5-yl)ureido)naphthalen-1-yl)oxy)pyrimidin-2-yl)amino)-5-ethynyl-N-(2-(2-(2-methoxyethoxy)ethoxy)ethyl)-benzamide]
% β-catenin induction ([4]; 1 μg/mL): 0%
% β-catenin induction ([4]; 5 μg/mL): 2%
% β-catenin induction ([4]; 10 μg/mL): 0%
